Assay results from patent US11400058B2, “Intravenous formulations of coenzyme Q10 (CoQ10) and methods of use thereof” (Berg LLC, priority 2010, dated 2022).
Marks after values point to notes of the source that are not given here.

Test: 4-week repeat-dose toxicology study in rats with 2-week recovery (Study 20000328)
Settings: for Died or Sacrificed Moribund: animals of 15
[1] = 62.5 mg/kg F, end of dosing, animals of 10
[2] = 62.5 mg/kg F, end of recovery, animals of 5
[3] = 62.5 mg/kg M, end of dosing, animals of 10

COC1=C(OC)C(=O)C(C/C=C(\C)CC/C=C(\C)CC/C=C(\C)CC/C=C(\C)CC/C=C(\C)CC/C=C(\C)CC/C=C(\C)CC/C=C(\C)CC/C=C(\C)CCC=C(C)C)=C(C)C1=O [CoQ10, Coenzyme Q10]
Died or Sacrificed Moribund (62.5 mg/kg F): 0 | ALT (62.5 mg/kg F, end of dosing): 19 IU/L | APPT (62.5 mg/kg F, end of dosing): 15.1 s | AST (62.5 mg/kg F, end of dosing): 67* IU/L | Body Weight, percent difference from controls (62.5 mg/kg F, end of dosing): −1.7% | Eosinophils (62.5 mg/kg F, end of dosing): 0.09 10^3/cmm | Erythrocytes (62.5 mg/kg F, end of dosing): 7.77* 10^6/cmm | Food Consumption, percent difference from controls (62.5 mg/kg F, end of dosing): −4.0% | GGT (62.5 mg/kg F, end of dosing): 0.42 IU/L | Hematocrit (62.5 mg/kg F, end of dosing): 42.4* % | Hemoglobin (62.5 mg/kg F, end of dosing): 14.7* g/dL | Leukocytes (62.5 mg/kg F, end of dosing): 8.33 10^3/cmm | Liver weight (absolute), percent difference from controls (62.5 mg/kg F, end of dosing): −6.1% | Lymphocytes (62.5 mg/kg F, end of dosing): 6.79 10^3/cmm | Neutrophils (62.5 mg/kg F, end of dosing): 1.06 10^3/cmm | Spleen weight (absolute), percent difference from controls (62.5 mg/kg F, end of dosing): −48.2* % | Bone Marrow, Sternum Hyperplasia [1]: 0 | Bone Marrow, Sternum Hyperplasia, Mild [1]: 0 | Bone Marrow, Sternum Hyperplasia, Minimal [1]: 0 | Gross Pathology: Enlarged Pancreatic Lymph Nodes [1]: 0 | Gross Pathology: Pale Adrenal [1]: 0 | Gross Pathology: Pale Liver [1]: 7 | Gross Pathology: Pale Lymph Nodes [1]: 1 | Gross Pathology: Pale Ovaries [1]: 0 | Gross Pathology: Pale Pituitary [1]: 0 | Gross Pathology: Pale SQ Skin [1]: 0 | Liver Focal Necrosis [1]: 1 | Liver Focal Necrosis, Minimal [1]: 1 | Liver Histiocytic Infiltration [1]: 7 | Liver Histiocytic Infiltration, Mild [1]: 0 | Liver Histiocytic Infiltration, Minimal [1]: 7 | Liver Histiocytic Infiltration, Moderate [1]: 0 | Liver Vacuolation [1]: 7 | Liver Vacuolation, Mild [1]: 0 | Liver Vacuolation, Minimal [1]: 7 | Lymph Node, Man. Histiocytic Infiltration [1]: 4 | Lymph Node, Man. Histiocytic Infiltration, Mild [1]: 0 | Lymph Node, Man. Histiocytic Infiltration, Minimal [1]: 4 | Lymph Node, Man. Histiocytic Infiltration, Moderate [1]: 0 | Lymph Node, Mes. Histiocytic Infiltration [1]: 9 | Lymph Node, Mes. Histiocytic Infiltration, Mild [1]: 2 | Lymph Node, Mes. Histiocytic Infiltration, Minimal [1]: 7 | Lymph Node, Mes. Histiocytic Infiltration, Moderate [1]: 0 | Ovary Histiocytic Infiltration [1]: 0 | Ovary Histiocytic Infiltration, Mild [1]: 0 | Ovary Histiocytic Infiltration, Minimal [1]: 0 | Ovary Histiocytic Infiltration, Moderate [1]: 0 | Skin, Dermis Histiocytic Infiltration [1]: 0 | Skin, Dermis Histiocytic Infiltration, Marked [1]: 0 | Skin, Dermis Histiocytic Infiltration, Mild [1]: 0 | Skin, Dermis Histiocytic Infiltration, Moderate [1]: 0 | Skin, SQ Histiocytic Infiltration [1]: 0 | Skin, SQ Histiocytic Infiltration, Mild [1]: 0 | Spleen Histiocytic Infiltration [1]: 4 | Spleen Histiocytic Infiltration, Marked [1]: 0 | Spleen Histiocytic Infiltration, Mild [1]: 4 | Spleen Histiocytic Infiltration, Moderate [1]: 0 | ALT (62.5 mg/kg F, end of recovery): 19 IU/L | APPT (62.5 mg/kg F, end of recovery): 14.4 s | AST (62.5 mg/kg F, end of recovery): 83 IU/L | Body Weight, percent difference from controls (62.5 mg/kg F, end of recovery): −0.9% | Food Consumption, percent difference from controls (62.5 mg/kg F, end of recovery): −7.9% | GGT (62.5 mg/kg F, end of recovery): 0.12 IU/L | Liver weight (absolute), percent difference from controls (62.5 mg/kg F, end of recovery): +4.6% | Spleen weight (absolute), percent difference from controls (62.5 mg/kg F, end of recovery): +0.5% | Adrenal Gland Vacuolation [2]: 3 | Adrenal Gland Vacuolation, Marked [2]: 0 | Adrenal Gland Vacuolation, Mild [2]: 0 | Adrenal Gland Vacuolation, Minimal [2]: 3 | Adrenal Gland Vacuolation, Moderate [2]: 0 | Gross Pathology: Enlarged Spleen [2]: 0 | Gross Pathology: Pale Iliac Lymph Node [2]: 2 | Gross Pathology: Pale Liver [2]: 3 | Gross Pathology: Pale Ovaries [2]: 0 | Gross Pathology: Pale Pancreatic Lymph Node [2]: 1 | Liver Focal Necrosis [2]: 0 | Liver Focal Necrosis, Mild [2]: 0 | Liver Focal Necrosis, Minimal [2]: 0 | Liver Histiocytic Infiltration [2]: 5 | Liver Histiocytic Infiltration, Mild [2]: 2 | Liver Histiocytic Infiltration, Minimal [2]: 3 | Liver Histiocytic Infiltration, Moderate [2]: 0 | Liver Multifocal Necrosis [2]: 0 | Liver Multifocal Necrosis, Mild [2]: 0 | Liver Multifocal Necrosis, Moderate [2]: 0 | Liver Vacuolation [2]: 5 | Liver Vacuolation, Mild [2]: 2 | Liver Vacuolation, Minimal [2]: 2 | Liver Vacuolation, Moderate [2]: 1 | Lymph Node, Man. Histiocytic Infiltration [2]: 2 | Lymph Node, Man. Histiocytic Infiltration, Mild [2]: 0 | Lymph Node, Man. Histiocytic Infiltration, Minimal [2]: 2 | Lymph Node, Man. Histiocytic Infiltration, Moderate [2]: 0 | Lymph Node, Mes. Histiocytic Infiltration [2]: 4 | Lymph Node, Mes. Histiocytic Infiltration, Mild [2]: 0 | Lymph Node, Mes. Histiocytic Infiltration, Minimal [2]: 4 | Ovary Histiocytic Infiltration [2]: 4 | Ovary Histiocytic Infiltration, Mild [2]: 0 | Ovary Histiocytic Infiltration, Minimal [2]: 4 | Ovary Histiocytic Infiltration, Moderate [2]: 0 | Spleen Histiocytic Infiltration [2]: 3 | Spleen Histiocytic Infiltration, Marked [2]: 0 | Spleen Histiocytic Infiltration, Mild [2]: 1 | Spleen Histiocytic Infiltration, Minimal [2]: 2 | Spleen Histiocytic Infiltration, Moderate [2]: 0 | Died or Sacrificed Moribund (62.5 mg/kg M): 0 | ALT (62.5 mg/kg M, end of dosing): 22 IU/L | APPT (62.5 mg/kg M, end of dosing): 17.6 s | AST (62.5 mg/kg M, end of dosing): 74 IU/L | Body Weight, percent difference from controls (62.5 mg/kg M, end of dosing): −0.5% | Eosinophils (62.5 mg/kg M, end of dosing): 0.09* 10^3/cmm | Erythrocytes (62.5 mg/kg M, end of dosing): 8.14* 10^6/cmm | Food Consumption, percent difference from controls (62.5 mg/kg M, end of dosing): +2.5% | GGT (62.5 mg/kg M, end of dosing): 0.00 IU/L | Hematocrit (62.5 mg/kg M, end of dosing): 44.3% | Hemoglobin (62.5 mg/kg M, end of dosing): 15.1* g/dL | Leukocytes (62.5 mg/kg M, end of dosing): 8.56* 10^3/cmm | Liver weight (absolute), percent difference from controls (62.5 mg/kg M, end of dosing): −5.5% | Lymphocytes (62.5 mg/kg M, end of dosing): 7.02* 10^3/cmm | Neutrophils (62.5 mg/kg M, end of dosing): 1.06 10^3/cmm | Spleen weight (absolute), percent difference from controls (62.5 mg/kg M, end of dosing): −57.3* % | Bone Marrow, Sternum Hyperplasia [3]: 0 | Bone Marrow, Sternum Hyperplasia, Mild [3]: 0 | Bone Marrow, Sternum Hyperplasia, Minimal [3]: 0 | Gross Pathology: Enlarged Pancreatic Lymph Nodes [3]: 0 | Gross Pathology: Pale Adrenal [3]: 0 | Gross Pathology: Pale Liver [3]: 9 | Gross Pathology: Pale Lymph Nodes [3]: 0 | Gross Pathology: Pale Pituitary [3]: 0 | Gross Pathology: Pale SQ Skin [3]: 1 | Liver Focal Necrosis [3]: 0 | Liver Focal Necrosis, Minimal [3]: 0 | Liver Histiocytic Infiltration [3]: 2 | Liver Histiocytic Infiltration, Mild [3]: 1 | Liver Histiocytic Infiltration, Minimal [3]: 1 | Liver Histiocytic Infiltration, Moderate [3]: 0 | Liver Vacuolation [3]: 2 | Liver Vacuolation, Mild [3]: 0 | Liver Vacuolation, Minimal [3]: 2 | Lymph Node, Man. Histiocytic Infiltration [3]: 6 | Lymph Node, Man. Histiocytic Infiltration, Mild [3]: 1 | Lymph Node, Man. Histiocytic Infiltration, Minimal [3]: 4 | Lymph Node, Man. Histiocytic Infiltration, Moderate [3]: 1 | Lymph Node, Mes. Histiocytic Infiltration [3]: 9 | Lymph Node, Mes. Histiocytic Infiltration, Mild [3]: 4 | Lymph Node, Mes. Histiocytic Infiltration, Minimal [3]: 5 | Lymph Node, Mes. Histiocytic Infiltration, Moderate [3]: 0 | Skin, Dermis Histiocytic Infiltration [3]: 0 | Skin, Dermis Histiocytic Infiltration, Marked [3]: 0 | Skin, Dermis Histiocytic Infiltration, Mild [3]: 0 | Skin, Dermis Histiocytic Infiltration, Moderate [3]: 0 | Skin, SQ Histiocytic Infiltration [3]: 0 | Skin, SQ Histiocytic Infiltration, Mild [3]: 0 | Spleen Histiocytic Infiltration [3]: 1 | Spleen Histiocytic Infiltration, Marked [3]: 0
